Results from US6117661A, “Mutant mono-oxygenase cytochrome P450cam” (BG plc, priority 1995, dated 2000).
Like-named read-outs stand apart in the source and are kept apart here.

Legend:
P450cam WT = target: T1, P450cam WT (Pseudomonas putida, UniProt P00183); assay: Product distribution following oxidation of substrates (GC); format: biochemical, P. putida; settings: for Products (%) WT: label = product
T1 construct: reconstituted with putidaredoxin and putidaredoxin reductase
Description: (§1) A buffered solution (50 mM Tris.HCI, pH 7.4), typically 3 ml in volume, containing 10 uM putidaredoxin, 2 uM putidaredoxin reductase, 1 uM cytochrome P-450cam mono-oxygenase (wild-type or mutant), 200 mM KCI, 50 ug/ml bovine liver catalase (Sigma), and 1 mM target organic compound such as cyclohexylbenzene (added as a 0.1 M stock in ethanol) was preincubated at 30° C. for 5 minutes. The enzymatic reaction was initiated by adding NADH to a total concentration of 2 mM. Further four aliquots of NADH (to increase the NADH concentration by 1 mM each time) were added in intervals of 10 minutes, and 30 minutes into the incubation one aliquot of substrate (to increase the concentration by 1 mM) was also added. The reaction was quenched after 60 minutes by adding 0.5 ml chloroform and vortexing the mixture. The phases were separated by centrifugation (4000 g) at 4° C. The chloroform layer was analyzed by gas chromatography.
(§2) For many substrate compounds such as cyclohexylbenzene for which not all the P-450cam-mediated oxidation products are commercially available, the chloroform extracts are evaporated to dryness under a stream of nitrogen. The residues were extracted with hexane and the oxidation products separated by high performance liquid chromatography, eluting with a hexane/isopropanol gradient. The purified products were then identified by mass spectroscopy and particularly nuclear magnetic resonance spectroscopy.
(§3) The NADH concentration can be monitored at 340 nm and, in all cases, more substrates and NADH are added during the incubation.

[1] = target: T2, P450cam active site mutant F87A-F96G-F193A (Pseudomonas putida, UniProt P00183, C335A/F194A/F88A/Y97G); format: biochemical, P. putida; settings: for Products (%) F87A-F96G-F193A: label = product
T2 construct: reconstituted with putidaredoxin and putidaredoxin reductase
T2 sequence (P00259 whole entry): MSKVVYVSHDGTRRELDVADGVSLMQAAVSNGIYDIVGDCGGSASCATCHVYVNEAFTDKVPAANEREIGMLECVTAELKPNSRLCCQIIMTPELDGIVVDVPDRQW
T2 sequence (P00183 2-415 F88A/Y97G/F194A/C335A): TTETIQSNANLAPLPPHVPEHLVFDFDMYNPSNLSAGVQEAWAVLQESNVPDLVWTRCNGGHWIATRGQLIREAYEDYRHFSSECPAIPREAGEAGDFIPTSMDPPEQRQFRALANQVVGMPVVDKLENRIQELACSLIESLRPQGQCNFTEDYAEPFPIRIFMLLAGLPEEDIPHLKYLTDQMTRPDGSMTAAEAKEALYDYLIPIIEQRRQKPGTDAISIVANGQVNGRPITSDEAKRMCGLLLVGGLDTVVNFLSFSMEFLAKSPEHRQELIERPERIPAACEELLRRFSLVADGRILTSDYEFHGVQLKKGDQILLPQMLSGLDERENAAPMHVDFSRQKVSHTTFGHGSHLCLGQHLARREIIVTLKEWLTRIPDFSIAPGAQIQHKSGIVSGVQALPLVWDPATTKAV
T2 sequence (P16640 whole entry, further chain): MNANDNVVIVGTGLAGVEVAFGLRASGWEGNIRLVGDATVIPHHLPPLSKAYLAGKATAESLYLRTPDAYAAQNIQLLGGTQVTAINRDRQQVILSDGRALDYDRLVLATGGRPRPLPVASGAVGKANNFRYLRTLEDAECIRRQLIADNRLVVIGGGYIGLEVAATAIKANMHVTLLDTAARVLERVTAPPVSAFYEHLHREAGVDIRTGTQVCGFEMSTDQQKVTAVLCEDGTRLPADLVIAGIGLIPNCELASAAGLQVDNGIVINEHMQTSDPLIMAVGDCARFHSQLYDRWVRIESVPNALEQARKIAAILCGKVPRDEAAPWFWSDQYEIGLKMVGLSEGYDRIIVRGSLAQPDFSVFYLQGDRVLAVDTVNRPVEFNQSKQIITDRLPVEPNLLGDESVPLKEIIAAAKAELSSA
Description: as §1, §2, §3

[2] = target: T3, P450cam active site mutant Y96A (also C334A) (Pseudomonas putida, UniProt P00183, C335A/Y97A); format: biochemical, P. putida; settings: for Products(%) Y96A: label = product
T3 construct: reconstituted with putidaredoxin and putidaredoxin reductase
T3 sequence (P00183 2-415 Y97A/C335A): as the sequence (P00183 2-415 F88A/Y97G/F194A/C335A) above, with A87F, G96A, A193F counted along it
T3 sequence (P00259 whole entry, further chain): as the sequence (P00259 whole entry) above
T3 sequence (P16640 whole entry, further chain): as the sequence (P16640 whole entry, further chain) above
Description: as §1, §2, §3

[3] = target: T4, P450cam active site mutant Y96F (also C334A) (Pseudomonas putida, UniProt P00183, C335A/Y97F); format: biochemical, P. putida; settings: for Products(%) Y96F: label = product
T4 construct: reconstituted with putidaredoxin and putidaredoxin reductase
T4 sequence (P16640 whole entry): as the sequence (P16640 whole entry, further chain) above
T4 sequence (P00183 2-415 Y97F/C335A): as the sequence (P00183 2-415 F88A/Y97G/F194A/C335A) above, with A87F, G96F, A193F counted along it
T4 sequence (P00259 whole entry, further chain): as the sequence (P00259 whole entry) above
Description: as §1, §2, §3

[4] = target: T5, P450cam active site mutant Y96L (also C334A) (Pseudomonas putida, UniProt P00183, C335A/Y97L); format: biochemical, P. putida; settings: for Products (%) Y96L: label = product
T5 construct: reconstituted with putidaredoxin and putidaredoxin reductase
T5 sequence (P00183 2-415 Y97L/C335A): as the sequence (P00183 2-415 F88A/Y97G/F194A/C335A) above, with A87F, G96L, A193F counted along it
T5 sequence (P16640 whole entry, further chain): as the sequence (P16640 whole entry, further chain) above
T5 sequence (P00259 whole entry, further chain): as the sequence (P00259 whole entry) above
Description: as §1, §2, §3

[5] = target: T6, P450cam active site mutant Y96V (also C334A) (Pseudomonas putida, UniProt P00183, C335A/Y97V); format: biochemical, P. putida; settings: for Products (%) Y96V: label = product
T6 construct: reconstituted with putidaredoxin and putidaredoxin reductase
T6 sequence (P00183 2-415 Y97V/C335A): as the sequence (P00183 2-415 F88A/Y97G/F194A/C335A) above, with A87F, G96V, A193F counted along it
T6 sequence (P00259 whole entry, further chain): as the sequence (P00259 whole entry) above
T6 sequence (P16640 whole entry, further chain): as the sequence (P16640 whole entry, further chain) above
Description: as §1, §2, §3

Wild type P450cam = Wild type P450cam (Pseudomonas putida, UniProt P00183); format: binding, P. putida
Sequence of Wild type P450cam (P00183 whole entry): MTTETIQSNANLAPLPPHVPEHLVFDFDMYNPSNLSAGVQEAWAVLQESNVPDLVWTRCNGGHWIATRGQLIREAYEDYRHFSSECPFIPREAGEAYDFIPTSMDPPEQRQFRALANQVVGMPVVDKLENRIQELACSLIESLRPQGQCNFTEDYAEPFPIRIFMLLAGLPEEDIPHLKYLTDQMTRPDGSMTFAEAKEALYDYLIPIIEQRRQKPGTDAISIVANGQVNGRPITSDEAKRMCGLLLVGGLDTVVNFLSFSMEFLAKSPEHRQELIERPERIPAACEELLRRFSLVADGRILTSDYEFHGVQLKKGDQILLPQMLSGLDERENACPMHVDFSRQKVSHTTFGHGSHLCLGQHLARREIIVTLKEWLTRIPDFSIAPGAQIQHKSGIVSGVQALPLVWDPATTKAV
Sequence of Wild type P450cam (P00259 whole entry, further chain): as the sequence (P00259 whole entry) above
Sequence of Wild type P450cam (P16640 whole entry, further chain): as the sequence (P16640 whole entry, further chain) above

P450cam Mutant Y96A = P450cam Mutant Y96A (Pseudomonas putida, UniProt P00183, C335A/Y97A); format: binding, P. putida
Sequence of P450cam Mutant Y96A (P00183 2-415 Y97A/C335A): as the sequence (P00183 2-415 F88A/Y97G/F194A/C335A) above, with A87F, G96A, A193F counted along it
Sequence of P450cam Mutant Y96A (P16640 whole entry, further chain): as the sequence (P16640 whole entry, further chain) above
Sequence of P450cam Mutant Y96A (P00259 whole entry, further chain): as the sequence (P00259 whole entry) above

[6] = Protein dimerisation by anion exchange FPLC and gel filtration; format: physicochemical; settings: Resource Q FPLC and Superose 12 gel filtration; C334A even at high concentrations (0.1 mM range)
Excerpt: We concluded that wild-type P-450cam underwent dimerisation by intermolecular S--S disulphide bond formation between the surface cysteine 334 on two protein molecules.

[7] = Protein aggregation upon standing/storage; format: physicochemical; settings: for dimerisation and aggregation upon storage: storage at 4° C., and even in 50% glycerol solutions at -20° C.
Excerpt: The C334A mutation has the obvious benefit of removing unwanted protein dimerisation, thus ensuring the presence of a single species in solution at all times. In addition, we noted a completely unexpected benefit of this mutation. […] Aggregation will also occur during turnover, especially at the higher P-450cam concentrations required in any economically viable industrial application in, for example, synthesis of organic molecules. […] Thus, the C334A mutation has beneficial effects in protein handling, storage, and increased catalyst lifetime.

T1 sequence (P00259 whole entry): as above
T1 sequence (P16640 whole entry, further chain): as the sequence (P16640 whole entry, further chain) above
T1 sequence (P00183 whole entry): as the sequence (P00183 whole entry) above

Oc1cccc2ccccc12 [1-ol]
Products (%) WT (P450cam WT; substrate naphthalene): 100% | Products (%) F87A-F96G-F193A ([1]; substrate naphthalene): 100% | Products(%) Y96A ([2]; substrate naphthalene): 100% | Products(%) Y96F ([3]; substrate naphthalene): 100% | Products (%) Y96L ([4]; substrate naphthalene): 100% | Products (%) Y96V ([5]; substrate naphthalene): 100%

Oc1ccc2ccccc2c1 [2-ol]
Products (%) WT (P450cam WT; substrate naphthalene): 0% | Products (%) F87A-F96G-F193A ([1]; substrate naphthalene): 0% | Products(%) Y96A ([2]; substrate naphthalene): 0% | Products(%) Y96F ([3]; substrate naphthalene): 0% | Products (%) Y96L ([4]; substrate naphthalene): 0% | Products (%) Y96V ([5]; substrate naphthalene): 0%

c1ccc2c(c1)-c1cccc3cccc-2c13 [Fluoranthene]
Wild type Vs DTT (Wild type P450cam): 5 | Mutant Y96A Vs DTT (P450cam Mutant Y96A): 10 | Mutant Y96A ΔSpin high/low (P450cam Mutant Y96A): 20 | Total products WT (P450cam WT; substrate fluoranthene): 0 area/10^6 | Total products F87A-F96G-F193A ([1]; substrate fluoranthene): 0.2 area/10^6 | Total products Y96A ([2]; substrate fluoranthene): 2.7 area/10^6

c1ccc2ccccc2c1 [Naphthalene]
Mutant Y96A Vs DTT (P450cam Mutant Y96A): 20 | Mutant Y96A ΔSpin high/low (P450cam Mutant Y96A; -- = no shift, nd = not determined): 15 | Total products WT (P450cam WT; substrate naphthalene): 0.016 area/10^5 | Total products F87A-F96G-F193A ([1]; substrate naphthalene): 0.1 area/10^5 | Total products Y96A ([2]; substrate naphthalene): 1.1 area/10^5 | Total products Y96F ([3]; substrate naphthalene): 2.4 area/10^5 | Total products Y96L ([4]; substrate naphthalene): 0.7 area/10^5 | Total products Y96V ([5]; substrate naphthalene): 1.4 area/10^5

c1cc2ccc3cccc4ccc(c1)c2c34 [Pyrene]
Total products WT (P450cam WT; substrate pyrene): 0 area/10^6 | Total products F87A-F96G-F193A ([1]; substrate pyrene): 0.02 area/10^6 | Total products Y96A ([2]; substrate pyrene): 1.2 area/10^6 | Total products Y96F ([3]; substrate pyrene): 1.5 area/10^6 | Total products Y96L ([4]; substrate pyrene): 1.5 area/10^6 | Total products Y96V ([5]; substrate pyrene): 1.6 area/10^6

B1: wild-type P-450cam: mono-oxygenase cytochrome P-450cam from P. putida (protein, UniProt P00183 2-415, looked up)
Camphor 5-monooxygenase: TTETIQSNANLAPLPPHVPEHLVFDFDMYNPSNLSAGVQEAWAVLQESNVPDLVWTRCNGGHWIATRGQLIREAYEDYRHFSSECPFIPREAGEAYDFIPTSMDPPEQRQFRALANQVVGMPVVDKLENRIQELACSLIESLRPQGQCNFTEDYAEPFPIRIFMLLAGLPEEDIPHLKYLTDQMTRPDGSMTFAEAKEALYDYLIPIIEQRRQKPGTDAISIVANGQVNGRPITSDEAKRMCGLLLVGGLDTVVNFLSFSMEFLAKSPEHRQELIERPERIPAACEELLRRFSLVADGRILTSDYEFHGVQLKKGDQILLPQMLSGLDERENACPMHVDFSRQKVSHTTFGHGSHLCLGQHLARREIIVTLKEWLTRIPDFSIAPGAQIQHKSGIVSGVQALPLVWDPATTKAV
presence of protein dimer [6]: dimer was detected | dimerisation and aggregation upon storage [7]: dimerisation as well as aggregation

B2: C136A: P-450cam surface mutant, cysteine 136 substituted to alanine (protein, UniProt P00183 2-415, looked up, variant C136A)
Camphor 5-monooxygenase: TTETIQSNANLAPLPPHVPEHLVFDFDMYNPSNLSAGVQEAWAVLQESNVPDLVWTRCNGGHWIATRGQLIREAYEDYRHFSSECPFIPREAGEAYDFIPTSMDPPEQRQFRALANQVVGMPVVDKLENRIQELAASLIESLRPQGQCNFTEDYAEPFPIRIFMLLAGLPEEDIPHLKYLTDQMTRPDGSMTFAEAKEALYDYLIPIIEQRRQKPGTDAISIVANGQVNGRPITSDEAKRMCGLLLVGGLDTVVNFLSFSMEFLAKSPEHRQELIERPERIPAACEELLRRFSLVADGRILTSDYEFHGVQLKKGDQILLPQMLSGLDERENACPMHVDFSRQKVSHTTFGHGSHLCLGQHLARREIIVTLKEWLTRIPDFSIAPGAQIQHKSGIVSGVQALPLVWDPATTKAV
presence of protein dimer [6]: dimer was detected | dimerisation and aggregation upon storage [7]: dimerisation as well as aggregation

B3: C148A: P-450cam surface mutant, cysteine 148 substituted to alanine (protein, UniProt P00183 2-415, looked up, variant C148A)
Camphor 5-monooxygenase: TTETIQSNANLAPLPPHVPEHLVFDFDMYNPSNLSAGVQEAWAVLQESNVPDLVWTRCNGGHWIATRGQLIREAYEDYRHFSSECPFIPREAGEAYDFIPTSMDPPEQRQFRALANQVVGMPVVDKLENRIQELACSLIESLRPQGQANFTEDYAEPFPIRIFMLLAGLPEEDIPHLKYLTDQMTRPDGSMTFAEAKEALYDYLIPIIEQRRQKPGTDAISIVANGQVNGRPITSDEAKRMCGLLLVGGLDTVVNFLSFSMEFLAKSPEHRQELIERPERIPAACEELLRRFSLVADGRILTSDYEFHGVQLKKGDQILLPQMLSGLDERENACPMHVDFSRQKVSHTTFGHGSHLCLGQHLARREIIVTLKEWLTRIPDFSIAPGAQIQHKSGIVSGVQALPLVWDPATTKAV
presence of protein dimer [6]: dimer was detected | dimerisation and aggregation upon storage [7]: dimerisation as well as aggregation

B4: C85A: P-450cam surface mutant, cysteine 85 substituted to alanine (protein, UniProt P00183 2-415, looked up, variant C85A)
Camphor 5-monooxygenase: TTETIQSNANLAPLPPHVPEHLVFDFDMYNPSNLSAGVQEAWAVLQESNVPDLVWTRCNGGHWIATRGQLIREAYEDYRHFSSEAPFIPREAGEAYDFIPTSMDPPEQRQFRALANQVVGMPVVDKLENRIQELACSLIESLRPQGQCNFTEDYAEPFPIRIFMLLAGLPEEDIPHLKYLTDQMTRPDGSMTFAEAKEALYDYLIPIIEQRRQKPGTDAISIVANGQVNGRPITSDEAKRMCGLLLVGGLDTVVNFLSFSMEFLAKSPEHRQELIERPERIPAACEELLRRFSLVADGRILTSDYEFHGVQLKKGDQILLPQMLSGLDERENACPMHVDFSRQKVSHTTFGHGSHLCLGQHLARREIIVTLKEWLTRIPDFSIAPGAQIQHKSGIVSGVQALPLVWDPATTKAV
presence of protein dimer [6]: dimer was detected | dimerisation and aggregation upon storage [7]: dimerisation as well as aggregation

B5: C58A: P-450cam surface mutant, cysteine 58 substituted to alanine (protein, UniProt P00183 2-415, looked up, variant C58A)
Camphor 5-monooxygenase: TTETIQSNANLAPLPPHVPEHLVFDFDMYNPSNLSAGVQEAWAVLQESNVPDLVWTRANGGHWIATRGQLIREAYEDYRHFSSECPFIPREAGEAYDFIPTSMDPPEQRQFRALANQVVGMPVVDKLENRIQELACSLIESLRPQGQCNFTEDYAEPFPIRIFMLLAGLPEEDIPHLKYLTDQMTRPDGSMTFAEAKEALYDYLIPIIEQRRQKPGTDAISIVANGQVNGRPITSDEAKRMCGLLLVGGLDTVVNFLSFSMEFLAKSPEHRQELIERPERIPAACEELLRRFSLVADGRILTSDYEFHGVQLKKGDQILLPQMLSGLDERENACPMHVDFSRQKVSHTTFGHGSHLCLGQHLARREIIVTLKEWLTRIPDFSIAPGAQIQHKSGIVSGVQALPLVWDPATTKAV
presence of protein dimer [6]: dimer was detected | dimerisation and aggregation upon storage [7]: dimerisation as well as aggregation

B6: C334A: P-450cam surface mutant, cysteine 334 substituted to alanine (protein, UniProt P00183 2-415, looked up, variant C334A)
Camphor 5-monooxygenase: TTETIQSNANLAPLPPHVPEHLVFDFDMYNPSNLSAGVQEAWAVLQESNVPDLVWTRCNGGHWIATRGQLIREAYEDYRHFSSECPFIPREAGEAYDFIPTSMDPPEQRQFRALANQVVGMPVVDKLENRIQELACSLIESLRPQGQCNFTEDYAEPFPIRIFMLLAGLPEEDIPHLKYLTDQMTRPDGSMTFAEAKEALYDYLIPIIEQRRQKPGTDAISIVANGQVNGRPITSDEAKRMCGLLLVGGLDTVVNFLSFSMEFLAKSPEHRQELIERPERIPAACEELLRRFSLVADGRILTSDYEFHGVQLKKGDQILLPQMLSGLDERENAAPMHVDFSRQKVSHTTFGHGSHLCLGQHLARREIIVTLKEWLTRIPDFSIAPGAQIQHKSGIVSGVQALPLVWDPATTKAV
presence of protein dimer [6]: no dimer was detected | aggregation ([7]; mM concentrations at room temperature over a period of three days): did not show any evidence of aggregation
